The record followed here is PMC6745501, “Plant photoreceptors and their signaling components compete for COP1 binding via VP peptide motifs” (The EMBO Journal, 2019).

Assay [1] deals with T1, COP1^Lys422Ala WD40 domain (Arabidopsis thaliana, UniProt P43254, K422A).
T1 construct: His10-Twin-Strep with TEV site (N, cleaved yes); made in house; host or cells: Spodoptera frugiperda Sf9 insect cells (baculovirus, modified pFastBac)
Briefly: biochemical. The format is binding. Conditions: for N (stoichiometry of binding), VP peptide vs. COP1^Lys422Ala: peptide into COP1^Lys422Ala, 25°C, ± standard deviation.
Method: (§1) All experiments were performed in a buffer containing 150 mM NaCl, 20 mM HEPES 7.4, and 2 mM BME. […] The peptides were centrifuged at 14,000 × g for 10 min, and only the supernatant was used. The dissolved peptide concentrations were calculated based upon their absorbance at 280 nm and their corresponding molar extinction coefficient. […] Experiments were performed at 25°C and a stirring speed of 1,000 rpm on an ITC200 instrument (GE Healthcare). All data were processed using Origin 7.0 and fit to a one‐site binding model after background buffer subtraction.

In assay [2] the target is T2, Arabidopsis COP1^349–675 WD40 domain (Arabidopsis thaliana, UniProt P43254).
T2 construct: His10-Twin-Strep with TEV site (N, cleaved yes); made in house; host or cells: Spodoptera frugiperda Sf9 insect cells (baculovirus, modified pFastBac)
T2 sequence (P43254 349-675): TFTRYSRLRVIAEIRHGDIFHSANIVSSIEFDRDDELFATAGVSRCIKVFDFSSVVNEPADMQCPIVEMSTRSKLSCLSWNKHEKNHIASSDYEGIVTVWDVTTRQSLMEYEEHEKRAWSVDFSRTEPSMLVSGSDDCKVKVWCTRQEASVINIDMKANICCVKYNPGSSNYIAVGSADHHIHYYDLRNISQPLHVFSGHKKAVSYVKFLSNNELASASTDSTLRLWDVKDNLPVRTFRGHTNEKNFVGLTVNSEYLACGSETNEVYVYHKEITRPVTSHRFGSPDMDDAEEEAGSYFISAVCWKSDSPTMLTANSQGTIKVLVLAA
Put plainly: Isothermal titration calorimetry (ITC) versus the COP1 WD40 domain. The format is binding. As to conditions: for N (stoichiometry of binding), VP peptide vs. COP1 WD40 domain (WT): peptide into COP1, 25°C, one-site binding model, ± standard deviation. In general terms: Isothermal titration calorimetry measures the heat released or taken up as one component is titrated into another.
Method: All experiments were performed in a buffer containing 150 mM NaCl, 20 mM HEPES 7.4, and 2 mM BME. Peptides were synthesized and delivered as lyophilized powder (Peptide Specialty Labs GmbH) and dissolved directly in buffer. The peptides were centrifuged at 14,000 × g for 10 min, and only the supernatant was used. […] Experiments were performed at 25°C and a stirring speed of 1,000 rpm on an ITC200 instrument (GE Healthcare). All data were processed using Origin 7.0 and fit to a one‐site binding model after background buffer subtraction.

The target in assay [3] is T3, COP1^Tyr441Ala WD40 domain (Arabidopsis thaliana, UniProt P43254, Y441A).
T3 construct: His10-Twin-Strep with TEV site (N, cleaved yes); made in house; host or cells: Spodoptera frugiperda Sf9 insect cells (baculovirus, modified pFastBac)
The format is binding. As to conditions: ITC, peptide into COP1^Tyr441Ala, 25°C; ± standard deviation.
Method: as §1

Assay [4] has as its system COP1 WD40 domain. Put plainly: Analytical size-exclusion chromatography binding assay. Conditions: Superdex 200 Increase 10/300 GL, ~4 μM per protein. Also noted: species or system Arabidopsis. On the procedure: 500 μl of the respective protein solution or a mixture (~ 4 μM per protein) was loaded sequentially onto the column, and elution at 0.75 ml/min was monitored by UV absorbance at 280 nm.

The target in assay [5] is COP1 WD40 domain. Put plainly: Grating-coupled interferometry (GCI) binding kinetics versus the COP1 WD40 domain. Also noted: species or system Arabidopsis. As to conditions: ligand COP1 (2000 pg/mm2), analyte in the absence of UV-B (ground state), highest concentration 2 μM, 1:1 binding model, read-out: Kd (dissociation constant), - UV-B. On the procedure:
For CRY2 activation, proteins were diluted to their final assay concentrations (as indicated in the figure legends) in Eppendorf tubes and exposed to 10 min of fluorescent light on ice.
The Creoptix WAVE system (Creoptix AG), a label‐free surface biosensor, was used to perform GCI experiments. All experiments were performed on 2PCH or 4PCH WAVEchips (quasi‐planar polycarboxylate surface; Creoptix AG). After a borate buffer conditioning (100 mM sodium borate pH 9.0, 1 M NaCl; Xantec), COP1 (ligand) was immobilized on the chip surface using standard amine‐coupling: 7 min activation [1:1 mix of 400 mM N‐(3‐dimethylaminopropyl)‐N′‐ethylcarbodiimide hydrochloride and 100 mM N‐hydroxysuccinimide (both Xantec)], injection of COP1 (10 μg/ml) in 10 mM sodium acetate pH 5.0 (Sigma) until the desired density was reached, and final quenching with 1 M ethanolamine pH 8.0 for 7 min (Xantec). […] Blank injections were used for double referencing and a dimethyl sulfoxide (DMSO) calibration curve for bulk correction. Analysis and correction of the obtained data were performed using the Creoptix WAVEcontrol software (applied corrections: X and Y offset; DMSO calibration; double referencing), and a one‐to‐one binding model or a heterogenous ligand model with bulk correction was used to fit all experiments.

As usually defined, the Kd is the equilibrium constant for the complex coming apart.

Where “and” joins values, the source holds several entries; their conditions need not be identical. Equal entries are not always repeated.

T1 sequence (P43254 349-675 K422A): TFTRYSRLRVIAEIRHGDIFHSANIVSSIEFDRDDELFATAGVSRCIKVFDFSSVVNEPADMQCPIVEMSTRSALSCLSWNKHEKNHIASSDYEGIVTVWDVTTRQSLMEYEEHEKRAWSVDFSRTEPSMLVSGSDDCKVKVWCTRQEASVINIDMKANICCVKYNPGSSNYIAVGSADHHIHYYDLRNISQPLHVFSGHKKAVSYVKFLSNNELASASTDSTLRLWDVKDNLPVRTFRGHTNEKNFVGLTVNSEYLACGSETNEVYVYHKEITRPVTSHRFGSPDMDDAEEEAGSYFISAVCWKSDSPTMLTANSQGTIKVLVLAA
T3 sequence (P43254 349-675 Y441A): as the sequence (P43254 349-675 K422A) above, with A74K, Y93A counted along it

As to Ac-EDQMVPSITY-NH2 [CRY1 peptide], the “N (stoichiometry of binding), VP peptide vs. COP1^Lys422Ala” value in assay [1] (ITC) is 0.98 ± 0.1. For the same substance, the “N (stoichiometry of binding), VP peptide vs. COP1 WD40 domain (WT)” value in assay [2] (ITC) is 0.99 ± 0.3.

Consider Ac-EIRRVPEFGGY-NH2 [HY5 peptide], for which the Kd in assay [1] turned out to be 23 ± 10 µM; in assay [2] it was 23 ± 7 µM. Further, in assay [1] (ITC), the “N (stoichiometry of binding), VP peptide vs. COP1^Lys422Ala” value is listed as 0.83 ± 0.2. Also, the “Times stronger binding to COP1 than UVR8^406–413” value in assay [2] (ITC, ratio of Kd values) is given as ~ 8. The “N (stoichiometry of binding), VP peptide vs. COP1^Tyr441Ala” value in assay [3] is reported as 0.92 ± 0.3.

Turning to “UVR8: recombinant full-length Arabidopsis UV-B photoreceptor UVR8 expressed in insect cells”, the “Interaction with the COP1 WD40 domain in size-exclusion chromatography, UV-B-activated” value in assay [4] (150 mM NaCl, 20 mM HEPES 7.4, 2 mM BME, protein pre-monomerized by UV-B) is “interact”. Also, the “Interaction with the COP1 WD40 domain in size-exclusion chromatography, non-activated” value in assay [4] (absence of UV-B (dimer)) is “no interaction”. In assay [5], the Kd is ~1 µM and 1.3 µM.

Substance Ac-GYGIVPSFY-NH2 [CO peptide] had a dissociation constant Kd in assay [1] of 21 ± 10 µM. Further, the “N (stoichiometry of binding), VP peptide vs. COP1^Lys422Ala” value in assay [1] (ITC) came out at 0.89 ± 0.03. Besides, in assay [1] (ITC, ratio of Kd values), the “Fold increase of binding affinity for COP1^Lys422Ala compared with wild type COP1” value is ~ 4. The “N (stoichiometry of binding), VP peptide vs. COP1 WD40 domain (WT)” value in assay [2] (ITC) was determined as 1.03 ± 0.00.

As for Ac-NDQQVPSAVY-NH2 [CRY2 peptide], the “Times reduction of binding by the COP1^Lys422Ala mutation compared with wild type COP1” value in assay [1] (ITC, ratio of Kd values) is given as ~ 30. In assay [2], this substance displayed a Kd of 21 ± 2 µM. The “N (stoichiometry of binding), VP peptide vs. COP1 WD40 domain (WT)” value in assay [2] (ITC) is given as 1.04 ± 0.20.

As for Ac-RYAVVPDE-NH2 [UVR8 peptide], the “N (stoichiometry of binding), VP peptide vs. COP1^Lys422Ala” value in assay [1] (ITC) worked out at 0.87 ± 0.2. Further, the “Fold increase of binding affinity for COP1^Lys422Ala compared with wild type COP1” value in assay [1] (ITC, ratio of Kd values) is given as ~ 10.

Consider Ac-GFGVVPSFY-NH2 [COL3 peptide], for which the “N (stoichiometry of binding), VP peptide vs. COP1^Lys422Ala” value in assay [1] (ITC) was found to be 0.90 ± 0.2. Further, the “N (stoichiometry of binding), VP peptide vs. COP1 WD40 domain (WT)” value in assay [2] (ITC) came out at 0.75 ± 0.2.
